# Assays:
# Format in all cases: cell-based
# [1] = tested on: yeast Saccharomyces cerevisiae X2180-1B; assay: Growth of yeast in matrix of tubes of Ready to Drink tea (0.14% tea) with preservatives and essential oil component, OD 600 nm at 14 days; details: RTD tea pH 3.4, cinnamic acid 1-175 ppm, 14 days 25° C.; for tubes supporting yeast growth compared with control without essential oil (FIG. 13): benzoic acid 1-250 ppm; for tubes supporting yeast growth compared with control without essential oil (FIG. 1): sorbic acid 1-250 ppm; for tubes supporting yeast growth compared with control without essential oil (FIG. 19): sorbic acid+benzoic acid 1:1 1-250 ppm
# Procedure: (§1) The matrix of 30 ml tubes each contained 10 ml RTD tea, pH 3.4. […] Tubes were inoculated with 10^4 cells of the yeast Saccharomyces cerevisiae X2180-1B. Tubes were then incubated for 14 days at 25° C. to allow surviving yeasts to grow out. At 14 days growth was measured by optical density at 600 nm in x11 diluted samples, and blank values subtracted.
# as §1, with “containing” for “contained”, “tea” for “tea,”, “3.4, all contained 100 ppm citral dimethyl acetal.” for “3.4.”, “were” for “were then”
# as §1, with “containing” for “contained”, “tea” for “tea,”, “3.4, all contained 100 ppm cumic alcohol.” for “3.4.”, “were” for “were then”
# as §1, with “containing” for “contained”, “tea” for “tea,”, “3.4, all contained 100 ppm citral.” for “3.4.”, “were” for “were then”
# as §1, with “containing” for “contained”, “tea” for “tea,”, “3.4, all contained 50 ppm 3,7-dimethyl octanol.” for “3.4.”, “were” for “were then”
# as §1, with “containing” for “contained”, “tea” for “tea,”, “3.4, all contained 100 ppm myrtenol.” for “3.4.”, “were” for “were then”
# as §1, with “containing” for “contained”, “tea” for “tea,”, “3.4, all contained 100 ppm piperonyl acetate.” for “3.4.”, “were” for “were then”
# as §1, with “containing” for “contained”, “tea” for “tea,”, “3.4, all contained 15 ppm trans, trans-2,4-decadienal.” for “3.4.”, “were” for “were then”
# as §1, with “containing” for “contained”, “tea” for “tea,”, “3.4, all contained 100 ppm δ-decanolactone.” for “3.4.”, “were” for “were then”
# as §1, with “containing” for “contained”, “tea” for “tea,”, “3.4, all contained 25 ppm citral dimethyl acetal and 35 ppm cumic alcohol.” for “3.4.”, “were” for “were then”
# The matrix of 30 ml tubes each contained 10 ml RTD tea, pH 3.4. […]
# [2] = tested on: yeast Saccharomyces cerevisiae X2180-1B; assay: Growth of yeast in matrix of tubes of synthetic soft drink (0% tea) with preservatives and essential oil component, OD 600 nm at 14 days; details: synthetic soft drink pH 3.4, 100 ppm essential oil component, cinnamic acid 1-175 ppm, 14 days 25° C.
# Procedure: (§2) Synthetic soft drink contained glucose, 8%w/v, citric acid 3 g/l, potassium orthophosphate 1 g/l, magnesium chloride 0.1 g/l and yeast extract 0.1 g/l. The matrix of 30 ml tubes each contained 10 ml synthetic soft drink, pH 3.4. Sorbic acid was used in the range 1-250 ppm and cinnamic acid in the range 1-175 ppm. Tubes were inoculated with 10^4 cells of the yeast Saccharomyces cerevisiae X2180-1B. Tubes were then incubated for 14 days at 25° C. to allow surviving yeasts to grow out. At 14 days growth was measured by optical density at 600 nm in x11 diluted samples, and blank values subtracted.
# as §2, with “each containing” for “each contained”, “soft drink” for “soft drink,”, “pH 3.4, all contained 100 ppm citral dimethyl acetal.” for “pH 3.4.”, “were” for “were then”
# Synthetic soft drink contained glucose, 8%w/v, citric acid 3 g/l, potassium orthophosphate 1 g/l, magnesium chloride 0.1 g/l and yeast extract 0.1 g/l. The matrix of 30 ml tubes each contained 10 ml synthetic soft drink, pH 3.4. […] At 14 days growth was measured by optical density at 600 nm in x11 diluted samples, and blank values subtracted.
# Synthetic soft drink contained glucose, 8%w/v, citric acid 3 g/l, potassium orthophosphate 1 g/l, magnesium chloride 0.1 g/l and yeast extract 0.1 g/l. […] At 14 days growth was measured by optical density at 600 nm in x11 diluted samples, and blank values subtracted.
# Synthetic soft drink contained glucose, 8%w/v, citric acid 3 g/l, potassium orthophosphate 1 g/l, magnesium chloride 0.1 g/l and yeast extract 0.1 g/l. […] At 14 days growth was measured by optical density at 600 nm in x11 diluted samples, and blank values subtracted. […]
# [3] = tested on: spoilage mould Aspergillus niger POL10; assay: Growth of spoilage mould in RTD tea with preservatives and increasing citral dimethyl acetal, visual at 28 days; details: RTD tea pH 3.1, 0.14% tea; sorbic acid 200 ppm, cinnamic acid 60 ppm, EDTA 30 ppm; 10^4 conidiaspores; 28 days 25° C.; tested 1-400 ppm
# Procedure: Growth of spoilage mould Aspergillus niger POL10 in 30 ml tubes each contained 10 ml RTD tea, pH 3.1, 0.14% tea. All tubes containing sorbic acid 200 ppm, cinnamic acid 60 ppm, EDTA 30 ppm. An essential oil component, citral dimethyl acetal, was added in increasing concentration to tubes, in the range 1-400 ppm. Tubes were inoculated with 10^4 conidiaspores of the mould Aspergillus niger POL10. Tubes were then incubated for 28 days at 25° C. to allow moulds to grow out. At 28 days growth was measured visually. Mould growth was visible in all tubes, excepting those containing >80 ppm citral dimethyl acetal.
# [4] = tested on: fungi; details: Table I, preferred essential oils
# [5] = 100 ppm essential oil component
compound,measurement,setting,value
COC(C=C(C)CCC=C(C)C)OC [Citral dimethyl acetal],tubes supporting yeast growth compared with control without essential oil (FIG. 13),[1]; [5],very substantially fewer tubes supporting yeast growth
same,tubes supporting yeast growth compared with control without essential oil (FIG. 1),[1]; [5],very substantially fewer tubes supporting yeast growth
same,tubes supporting yeast growth compared with control without essential oil (FIG. 19),[1]; [5],very substantially fewer tubes supporting yeast growth
same,tubes supporting yeast growth compared with control without essential oil (FIG. 17),[2]; benzoic acid 1-250 ppm,very substantially fewer tubes supporting yeast growth
same,tubes supporting yeast growth compared with control without essential oil (FIG. 11),[2]; sorbic acid 1-250 ppm,very substantially fewer tubes supporting yeast growth
same,tubes supporting yeast growth compared with control without essential oil (FIG. 23),[2]; sorbic acid+benzoic acid 1:1 1-250 ppm,very substantially fewer tubes supporting yeast growth
same,concentration at which no mould growth was visible,[3],> 80 ppm
CCCCCCCC(=O)O [Octanoic acid (caprylic)],MIC (ppm),[4],115 ppm
CC1(C)C2CC=C(CO)C1C2 (stereo not shown) [Myrtenol],tubes supporting yeast growth compared with control without essential oil (FIG. 1),[1]; [5],very substantially fewer tubes supporting yeast growth
CC(=O)OCc1ccc2c(c1)OCO2 [Piperonyl acetate],tubes supporting yeast growth compared with control without essential oil (FIG. 1),[1]; [5],very substantially fewer tubes supporting yeast growth
CC(C)c1ccc(CO)cc1 [Cumic alcohol],tubes supporting yeast growth compared with control without essential oil (FIG. 1),[1]; [5],very substantially fewer tubes supporting yeast growth
"CCCCC/C=C/C=C/C=O [trans,trans-2,4-Decadienal]",tubes supporting yeast growth compared with control without essential oil (FIG. 1),[1]; 15 ppm essential oil component,very substantially fewer tubes supporting yeast growth
"CC(C)CCCC(C)CCO (stereo not shown) [3,7-Dimethyl-1-octanol]",tubes supporting yeast growth compared with control without essential oil (FIG. 13),[1]; 50 ppm essential oil component,very substantially fewer tubes supporting yeast growth
same,tubes supporting yeast growth compared with control without essential oil (FIG. 1),[1]; 50 ppm essential oil component,very substantially fewer tubes supporting yeast growth
same,tubes supporting yeast growth compared with control without essential oil (FIG. 19),[1]; 50 ppm essential oil component,very substantially fewer tubes supporting yeast growth
CC(C)=CCCC(C)=CC=O [Citral],tubes supporting yeast growth compared with control without essential oil (FIG. 1),[1]; [5],very substantially fewer tubes supporting yeast growth

# From US6761919B2, “Ambient stable beverage” (priority 2000, dated 2004)
